The source of these data is article PMC5452965 (PeerJ, 2017).

Like-named read-outs stand apart in the source and are kept apart here.

In assay [1] the test system is Hela cells. The note with it: MTT, 48 h; ref Wang et al. (2016a); cited from earlier work.
Assay [2] concerns Hela cells. To be noted: 24 h, ref Wang et al. (2016a), cited from earlier work.
Assay [3] deals with MCF-7 cells. To be noted: MTT, 72 h; ref Wang et al. (2016a); cited from earlier work.
The subject of assay [4] is cellular actin filaments in actin-RFP Hela cells. To be noted: ref Wang et al. (2016a); cited from earlier work.
Assay [5] relates to U2OS cells. The note with it: MTT, 48 h; ref Wang et al. (2016a); cited from earlier work.
For assay [6], the system named is actin filaments in Hela cells. To be noted: cited from earlier work.
In assay [7] the test system is mitotic spindles in Hela cells. To be noted: Hela metaphase cells, 24 h, IC50; ref Wang et al. (2016a); cited from earlier work.
Assay [8] concerns microtubule network in α-tubulin-GFP U2OS cells. Nature of the assay: Imaging of tubulin-GFP transfected U2OS cells. It is filed as cell-based, human. The note with it: IC80 and IC50, 2-48 h. As to the method: Cells were imaged using a Keyence BZ-9000 microscope (Keyence; Neu-Isenburg, Germany) after incubation for 2 h, 4 h, 24 h and 48 h. The images were analyzed using BZ-II Analyzer software (version 2.1, Keyence; Neu-Isenburg, Germany).

The test system of assay [9] is Hela cells. The experiment in a line: Cell cycle analysis (propidium iodide, flow cytometry). The assay is classed as cell-based, human. To be noted: 24 h. As for the experimental part:
Cell cycle analysis was carried out as established in our laboratory ([Su, Cheng & Wink, 2015]). Briefly, Hela cells (5 × 10^5) were seeded in 6-well-plates and treated with different concentrations of cucurbitacins for 24 h. Cells were then collected, centrifuged and fixed in 70% ice-cold ethanol for at least 8 h. After washing steps, cells were treated with 0.2 mg/ml RNase A for 30 min at 37 C and then stained with 0.1 mg/ml propidium iodide. Samples were analyzed using a FACScan flow cytometer (Becton Dickinson, Heidelberg, Germany). Data were analyzed using Cell Quest™ Pro software (Becton Dickinson) and Microsoft excel (Microsoft Corporation, Washington, USA).
In general terms: Flow cytometry measures light scatter and fluorescence of single cells or particles in a stream.

The target of assay [10] is T1, Porcine brain tubulin plus MAPs (Sus scrofa, UniProt P02550+P02554).
T1 construct: Porcine brain tubulin plus MAPs was prepared by two cycles of polymerization and depolymerization; from tissue; host or cells: porcine brain
T1 sequence (P02550 whole entry): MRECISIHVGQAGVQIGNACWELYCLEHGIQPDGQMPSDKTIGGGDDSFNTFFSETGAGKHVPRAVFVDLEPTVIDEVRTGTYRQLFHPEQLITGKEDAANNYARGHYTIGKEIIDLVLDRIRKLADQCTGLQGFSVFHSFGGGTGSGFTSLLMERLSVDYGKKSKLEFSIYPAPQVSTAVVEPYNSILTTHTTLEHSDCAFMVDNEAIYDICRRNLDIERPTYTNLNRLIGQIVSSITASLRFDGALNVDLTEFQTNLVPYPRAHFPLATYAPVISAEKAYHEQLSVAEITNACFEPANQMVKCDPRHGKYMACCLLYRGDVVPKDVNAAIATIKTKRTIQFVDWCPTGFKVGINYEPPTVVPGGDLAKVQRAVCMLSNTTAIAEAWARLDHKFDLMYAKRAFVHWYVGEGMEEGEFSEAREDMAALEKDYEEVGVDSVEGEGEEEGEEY
T1 sequence (P02554 whole entry): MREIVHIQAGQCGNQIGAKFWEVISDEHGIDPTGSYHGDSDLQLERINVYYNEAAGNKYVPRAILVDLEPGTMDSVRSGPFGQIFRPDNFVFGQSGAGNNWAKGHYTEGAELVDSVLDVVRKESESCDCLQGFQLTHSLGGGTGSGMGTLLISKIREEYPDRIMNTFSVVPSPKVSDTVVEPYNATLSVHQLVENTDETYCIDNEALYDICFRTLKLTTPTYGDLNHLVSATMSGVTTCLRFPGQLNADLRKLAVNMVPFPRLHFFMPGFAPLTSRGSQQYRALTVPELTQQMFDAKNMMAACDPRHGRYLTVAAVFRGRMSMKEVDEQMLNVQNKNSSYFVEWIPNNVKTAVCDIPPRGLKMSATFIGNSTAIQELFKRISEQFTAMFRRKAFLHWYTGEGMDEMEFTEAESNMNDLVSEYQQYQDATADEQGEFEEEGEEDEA
Nature of the assay: In vitro tubulin polymerization assay. The assay is classed as biochemical. The note with it: for effect on tubulin assembly in vitro at 1 mM: Figure 4D. As to the method: Porcine brain tubulin plus MAPs was prepared by two cycles of polymerization and depolymerization according to a standard protocol ([Gell et al., 2011]). In-vitro tubulin polymerization assays were carried out in PEM buffer (100 mM PIPES, 2 mM EGTA, 0.1 mM EDTA, 3 mM MgCl2, 1 mM ATP and 1 mM GTP, pH 6.85) by mixing 5.6 mg/ml tubulin-MAPs with different concentrations of cucurbitacins in 96-well plates at 37°C for 40 min. The rate and extent of the polymerization reaction were monitored by light scattering at 360 nm using Tecan infinite M200 Pro.
(§1) All experiments were done in triplicate, repeated three times. Data are presented as mean ± standard deviation (SD). Statistical comparison between controls and different treatments were performed by an unpaired student’s t test using Microsoft excel 2013 (Microsoft Corporation, Washington, USA). Significance was considered at p < 0.05.

Assay [11] has as its system Hela, MCF-7 and U2OS cells. Nature of the assay: MTT assay, summary over three cell lines. It is filed as cell-based. The note with it: Homo sapiens; range over Hela, MCF-7, U2OS and over the three cucurbitacins. As for the experimental part:
(§2) The anti-proliferative effects of cucurbitacins were assessed using MTT assay, as previously described ([Nurcahyanti & Wink, 2015]). In brief, cells (1 × 10^4) were seeded in 96-well plates and incubated with different concentrations of cucurbitacins for 48 h (Hela, U2OS) and 72 h (MCF-7). MTT solution was then added and incubated for 2 h. The plates were read at 570 nm after the addition of DMSO using Tecan infinite M200 Pro (Tecan, Crailsheim, Germany).
as §1

Assay [12] concerns mitotic spindles in Hela cells. The experiment in a line: Immunofluorescence staining, mitotic spindles. It is filed as cell-based, human. To be noted: Hela metaphase cells, 24 h, IC50. As for the experimental part:
The immunofluorescence staining was carried out as established in our laboratory ([Wang et al., 2016a]).

Assay [13] concerns Hela cells. Nature of the assay: MTT assay (cytotoxicity), Hela. It is filed as cell-based, human. To be noted: 48 h; for IC80: 80% reduction of cell viability. As to the method:
as §2, §1

The subject of assay [14] is MCF-7 cells. Nature of the assay: MTT assay (cytotoxicity), MCF-7. It is filed as cell-based, human. As to the method: as §2, §1
In general terms: Tetrazolium dyes change colour on reduction, which living cells bring about.

In assay [15] the test system is U2OS cells. Nature of the assay: MTT assay (cytotoxicity), U2OS. The assay is classed as cell-based, human. To be noted: 48 h. As to the method: as §2, §1
Assay [16] deals with T1, Porcine brain tubulin plus MAPs.
In assay [17] the test system is microtubule network in α-tubulin-GFP U2OS cells. The note with it: cited from earlier work.
Setting [18] is: 1 h and 24 h, ref Wang et al. (2016a).

For orientation: IC80 means the point of the concentration-response curve where the effect stands at 80%. In the case of `COc1cc2c(c(OC)c1OC)-c1ccc(OC)c(=O)cc1[C@@H](NC(C)=O)CC2` [Colchicine, colchicine], the figures for the IC80 in the assay on Hela cells [1], with MCF-7 cells [3] and with U2OS cells [5] were 0.027 ± 0.00748 µM, 0.0799 ± 0.0409 µM and 0.87 ± 1.46 µM, respectively. Further, the G2/M population in the assay with Hela cells [2] (0.1μM) is given as 89.66 ± 2.04%. In addition, the “effect on cell cycle” value with Hela cells [2] is “dose-dependent G2/M cell cycle arrest”. Moreover, the “effect on cellular actin filaments (actin-RFP)” value (shortened to “effect … (actin-RFP)”) in assay [4] is reported as “No notable changes on actin filaments”. Also, in assay [6] (setting [18]), the “effect on actin filaments (immunofluorescence)” value (from here on “effect on actin filaments”) is on record as “No apparent changes on actin filaments”. In addition, the “effect on mitotic spindles” value in assay [7] is “completely depolymerized spindle with the compacted chromosomes”.
Broadly, the IC50 is the concentration that inhibits the measured activity by half. Turning to `CC(=O)OC(C)(C)/C=C/C(=O)[C@](C)(O)[C@H]1[C@H](O)C[C@@]2(C)[C@@H]3CC=C4[C@@H](C=C(O)C(=O)C4(C)C)[C@]3(C)C(=O)C[C@]12C` [Cucurbitacin E, cucurbitacin E], the “effect on cellular microtubule network” value in assay [8] is on record as “changed the morphology of microtubule network into half-stretching state after 2 h incubation then round state after 24 h incubation”. In the assay with Hela cells [9], the “effect on cell cycle” value was “potential ability to arrest cell cycle at G2/M phase”. Also, the G2/M population in the assay on Hela cells [9] (0.3μM) is 59.35 ± 5.69%. Moreover, the IC50 in assay [10] is 567 ± 113 µM; in assay [11] it was 0.00643 to 0.0647 µM; in the assay with Hela cells [13] (Homo sapiens, HeLa) it was 0.00643 ± 0.00105 µM; in the assay on MCF-7 cells [14] (Homo sapiens, MCF7, 72 h), 0.054 ± 0.00316 µM; in the assay on U2OS cells [15] (Homo sapiens, U2OS), 0.0151 ± 0.00451 µM. Moreover, the “effect on phases of microtubule assembly (nucleation, growth, steady state)” value in assay [10] was “did not affect the nucleation but inhibited the growth phase and steady state”. Also, in assay [12], the “effect on mitotic spindles” value is “disordered distribution of spindle array”. The IC80 stood at 0.0151 ± 0.00267 µM in the assay with Hela cells [13] (Homo sapiens, HeLa); 0.92 ± 0.2 µM in the assay on MCF-7 cells [14] (Homo sapiens, MCF7, 72 h); 0.0263 ± 0.0185 µM with U2OS cells [15] (Homo sapiens, U2OS).
Regarding `CC(C)(O)/C=C/C(=O)[C@](C)(O)[C@H]1[C@H](O)C[C@@]2(C)[C@@H]3CC=C4[C@@H](C=C(O)C(=O)C4(C)C)[C@]3(C)C(=O)C[C@]12C` [Cucurbitacin I, cucurbitacin I], in the assay with Hela cells [9], the “effect on cell cycle” value was “potential ability to arrest cell cycle at G2/M phase”. The G2/M population with Hela cells [9] (0.6μM) was 59.18 ± 7.2%. In addition, the 50% inhibitory concentration (IC50) was over 1000 µM in assay [10]; 0.00643 to 0.0647 µM in assay [11]; 0.0448 ± 0.00154 µM in the assay with Hela cells [13] (Homo sapiens, HeLa); 0.0647 ± 0.0143 µM in the assay on MCF-7 cells [14] (Homo sapiens, MCF7, 72 h); 0.0235 ± 0.0169 µM in the assay with U2OS cells [15] (Homo sapiens, U2OS). Further, the “effect on tubulin assembly in vitro” value in [10] is “did not affect the tubulin assembly in vitro”. Further, the “effect on tubulin assembly in vitro at 1 mM” value in assay [10] is reported as “did not affect the assembly”. The “effect on mitotic spindles” value in assay [12] is “multipolar spindles and chromosomes mis-segregation on the metaphase plate”. Moreover, the 80% effect concentration (IC80) in the assay with Hela cells [13] (Homo sapiens, HeLa) came to 0.0555 ± 0.00363 µM; with MCF-7 cells [14] (Homo sapiens, MCF7, 72 h), 0.29 ± 0.08 µM; in the assay on U2OS cells [15] (Homo sapiens, U2OS) it was 0.034 ± 0.0177 µM.
For `C/C1=C/C(=O)O[C@@H]2C[C@@H](CC[C@H](C)/C=C\CC1)O[C@@](O)([C@@H]1CSC(=O)N1)C2` [Latrunculin B, latrunculin B], the half-maximal inhibitory concentration (IC50) in the assay with Hela cells [1] was 11.2 ± 1.27 µM; in assay [16] (read-out: IC50, inhibition of tubulin polymerization in vitro; 5.6 mg/ml tubulin-MAPs, 37°C, 40 min; ref Wang et al. (2016a); cited from earlier work) it was over 1000 µM; with MCF-7 cells [3], 38.5 ± 1.7 µM; in the assay on U2OS cells [5], 5.67 ± 0.59 µM. Moreover, the results for the 80% effect concentration (IC80) in the assay with Hela cells [1], in the assay with MCF-7 cells [3] and in the assay on U2OS cells [5] were 63.9 ± 5.68 µM, 140 ± 6.58 µM and 37.2 ± 15.7 µM, respectively. Further, in the assay with Hela cells [2], the “effect on cell cycle” value is reported as “dose-dependent G2/M cell cycle arrest”. Moreover, the “effect … (actin-RFP)” value in [4] is given as “actin cytoskeleton significantly disrupted”. Further, in assay [6] (setting [18]), the “effect on actin filaments” value is “actin cytoskeleton extensively disrupted”. The “effect on mitotic spindles” value in assay [7] is “did not alter mitotic spindles and chromosome arrangements”. Also, the “effect on cellular microtubule network” value in assay [17] (both concentrations (IC80, IC50), ref Wang et al. (2016a)) is recorded as “changed the cell morphology from stretching state into round state”.
Regarding `CC[C@]1(O)C[C@@H]2CN(CCc3c([nH]c4ccccc34)[C@@](C(=O)OC)(c3cc4c(cc3OC)N(C)[C@H]3[C@@](O)(C(=O)OC)[C@H](OC(C)=O)[C@]5(CC)C=CCN6CC[C@]43[C@@H]65)C2)C1` [Vinblastine, vinblastine], the IC50 in the assay with Hela cells [1] was 2e-05 ± 1e-05 µM; in [16] (5.6 mg/ml tubulin-MAPs, 37°C, 40 min; ref Wang et al. (2016a); read-out: IC50, inhibition of tubulin polymerization in vitro; cited from earlier work), 1.57 ± 0.34 µM; in the assay with MCF-7 cells [3], 6e-05 ± 5e-05 µM; in the assay on U2OS cells [5], 0.00011 ± 7e-05 µM. The values for the IC80 in the assay on Hela cells [1], in the assay on MCF-7 cells [3] and with U2OS cells [5] were 0.7 ± 0.34 µM, 2.08 ± 0.92 µM and 1.15 ± 0.51 µM, respectively. Moreover, the “effect on phases of microtubule assembly (nucleation, growth, steady state)” value in assay [16] (ref Wang et al. (2016a); cited from earlier work) is “inhibited the nucleation and growth phase during the assembly”. The G2/M population in the assay with Hela cells [2] (10 nM) is 78.04 ± 14.78%. The “effect on cell cycle” value in the assay on Hela cells [2] is given as “dose-dependent G2/M cell cycle arrest”. In addition, the “effect … (actin-RFP)” value in [4] is recorded as “No notable changes on actin filaments”. Further, the “effect on actin filaments” value in assay [6] (24 h, concentration of IC80, ref Wang et al. (2016a)) is given as “slight reduction of actin filament mass”. In addition, the “effect on mitotic spindles” value in [7] was “depolymerized bipolar spindles”. Further, the “effect on cellular microtubule network” value in assay [17] (concentration of IC50, ref Wang et al. (2016a)) is “extensively depolymerized microtubules”; in assay [17] (concentration of IC80, ref Wang et al. (2016a)), “tubulin paracrystals were formed and dispersed through out the cytoplasm”.
With cucurbitacin B, the “effect on cellular microtubule network” value in [8] is “changed the morphology of microtubule network into half-stretching state after 2 h incubation then round state after 24 h incubation”. Besides, the “effect on cell cycle” value with Hela cells [9] is “potential ability to arrest cell cycle at G2/M phase”. Further, in assay [10], the “effect on tubulin assembly in vitro” value is “did not affect the tubulin assembly in vitro” and the “effect on tubulin assembly in vitro at 1 mM” value is given as “did not affect the assembly”. In assay [12], the “effect on mitotic spindles” value was “disordered distribution of spindle array”. In addition, the “effect on tubulin polymerization in vitro” value in assay [16] (same assay; ref Duangmano et al. (2012); cited from earlier work) was “did not affect tubulin polymerization in vitro”. Moreover, in the assay with Hela cells [13], the midpoint of inhibition, the IC50, lay at 0.0122 ± 0.00142 µM and the IC80 amounted to 0.022 ± 0.00139 µM. In the assay with MCF-7 cells [14] (72 h), this compound had an IC50 of 0.0229 ± 0.00451 µM and an IC80 of 0.0437 ± 0.0106 µM. In the assay with U2OS cells [15], this compound came in with an IC50 of 0.0171 ± 0.00455 µM and an IC80 of 0.0281 ± 0.0152 µM.
